This note sets out measurements from ChEMBL document CHEMBL2029274, “Structure and property based design, synthesis and biological evaluation of γ-lactam based HDAC inhibitors: part II” (Bioorg Med Chem Lett, 2012).

Series [1] in a line: Inhibition of HDAC by fluorescence assay.
Series [2] has as its system PC-3. The series is described as follows: Antiproliferative activity against human PC3 cells. The class given is functional.
The subject of series [3] is MDA-MB-231. The series is described as follows: Antiproliferative activity against human MDA-MB-231 cells. The class given is functional.
The test system of series [4] is ACHN. The series is described as follows: Antiproliferative activity against human ACHN cells. The class given is functional.
For series [5], the system named is HCT-15. The series is described as follows: Antiproliferative activity against human HCT15 cells. The class given is functional.
The test system of series [6] is NCI-H23. The series is described as follows: Antiproliferative activity against human NCI-H23 cells. The class given is functional.
Series [7] in a line: Metabolic stability in mouse liver microsomes assessed as compound remaining at 1 uM after 30 mins in the presence of NADPH. It counts as ADME, Microsome. The conditions noted are these: read-out: Stability. (In general: Liver microsomes are a subcellular fraction often used to study metabolism.)
Series [8] can be described thus: Metabolic stability in mouse liver microsomes assessed as compound remaining at 1 uM after 30 mins in the absence of NADPH. The class given is ADME, Microsome. The conditions noted are these: read-out: Stability.
Series [9] can be described thus: Chemical stability in buffer assessed as compound remaining at 1 uM after 30 mins. It counts as physicochemical. The conditions noted are these: read-out: Stability.
Series [10] relates to NUGC-3. The series is described as follows: Antiproliferative activity against human NUGC3 cells. The class given is functional.

A value given as a limit tells only on which side of the number the result lay.

As a reminder, the IC50 is the midpoint of a concentration-inhibition curve. Low readings indicate greater potency, high ones weaker potency. Broadly, the GI50 is the concentration at which growth is held to half of that of the control. On to `O=C(CCC1=CCN(Cc2ccccc2)C1=O)NO`, for which the IC50 in [1] amounted to 120 nM. For the same compound, the GI50 in series [2] is 4430 nM; in series [3] it was 990 nM; in series [4] it was 1080 nM; in series [5] it was 5370 nM; in series [6], 4290 nM.
Regarding `O=C(CCC1=CCN(CCc2ccccc2)C1=O)NO`, the IC50 in [1] turned out to be 120 nM. This compound also came in with a GI50 in [3] of 990 nM. In addition, the remaining at 0.5 h, 1 µM in series [7] worked out at 82.9%; in [8], 85.5%; in [9] it was 96.7%.
With `COc1ccc(CCCN2CC=C(CCC(=O)NO)C2=O)cc1`, in series [1], half-maximal inhibition (IC50) was put at 270 nM. For the same compound, the GI50 was 7000 nM in series [2]; 2560 nM in series [3]; 4750 nM in series [4]; above 10000 nM in [5]; 2510 nM in series [6]; 5480 nM in [10].
`COc1cccc(CCCN2CC=C(CCC(=O)NO)C2=O)c1`: it took 160 nM to reach half-maximal inhibition in series [1] (IC50). For the same compound, the GI50 in series [2] is 2590 nM; in series [3] it was 1880 nM; in [4] it was 2480 nM; in series [5], above 10000 nM; in [6] it was 1170 nM; in series [10] it was 3930 nM.
Take `COc1ccccc1CCCN1CC=C(CCC(=O)NO)C1=O`: the IC50 in series [1] came to 130 nM. The GI50 was 3510 nM in series [2]; 1500 nM in series [3]; 2530 nM in series [4]; above 10000 nM in series [5]; 4490 nM in [6]; 2020 nM in series [10].
In turn, `O=C(CCC1=CCN(CCc2ccc(C(F)(F)F)cc2)C1=O)NO` displayed an IC50 in series [1] of 70 nM. Further, the GI50 amounted to 2380 nM in series [2]; 1170 nM in series [3]; 2480 nM in series [4]; 2200 nM in series [5]; 1120 nM in series [6]; 1080 nM in series [10]. Also, the results for the remaining at 0.5 h, 1 µM in series [7], in series [8] and in [9] were 75.9%, 73.9% and 102%, respectively.
`O=C(CCC1=CCN(CCc2cccc(C(F)(F)F)c2)C1=O)NO` came in with an IC50 in [1] of 120 nM. Besides, the GI50 in series [2] was determined as 2770 nM; in series [3], 2170 nM; in series [4], 1170 nM; in [5], 6010 nM; in series [6], 1110 nM; in [10] it was 920 nM.
Consider `COc1ccc(CCN2CC=C(CCC(=O)NO)C2=O)cc1`, for which, in series [1], the midpoint of inhibition, the IC50, lay at 190 nM. The GI50 is 3170 nM in series [2]; 1080 nM in series [3]; 2380 nM in series [4]; above 10000 nM in series [5]; 4020 nM in series [6]; 1420 nM in series [10]. Further, the remaining at 0.5 h, 1 µM in series [7] was determined as 98.3%; in [8], 92%; in series [9], 102%.
In the case of `COc1cccc(CCN2CC=C(CCC(=O)NO)C2=O)c1`, half-maximal inhibition in series [1] (IC50) was put at 160 nM. The GI50 in [2] is 2590 nM; in [3] it was 1880 nM; in series [4], 2480 nM; in series [5], above 10000 nM; in series [6] it was 1170 nM; in series [10], 3930 nM.
Turning to `COc1ccccc1CCN1CC=C(CCC(=O)NO)C1=O`, 130 nM corresponded to half-maximal inhibition in series [1] (IC50). The GI50 is 3510 nM in series [2]; 1500 nM in series [3]; 2530 nM in series [4]; above 10000 nM in [5]; 4490 nM in series [6]; 2020 nM in [10].
`O=C(CCC1=CCN(Cc2ccc(C(F)(F)F)cc2)C1=O)NO` returned a concentration for half-maximal inhibition (IC50) in series [1] of 260 nM. The GI50 was found to be 4360 nM in series [2]; 3070 nM in [3]; 4290 nM in series [4]; 4540 nM in series [5]; 6640 nM in [6]; 3230 nM in [10].
Compound `O=C(CCC1=CCN(Cc2cccc(C(F)(F)F)c2)C1=O)NO` showed an IC50 in [1] of 120 nM. The GI50 in series [2] came out at 880 nM; in [3], 220 nM; in [4], 670 nM; in series [5], 540 nM; in series [6], 680 nM; in series [10], 160 nM.
The compound `COc1ccc(CN2CC=C(CCC(=O)NO)C2=O)cc1` yielded an IC50 in series [1] of 450 nM. Further, the GI50 in series [2] is 3120 nM; in series [3] it was 1630 nM; in [4] it was 2480 nM; in series [5] it was 1720 nM; in series [6], 1640 nM; in series [10] it was 1110 nM.
Take `COc1cccc(CN2CC=C(CCC(=O)NO)C2=O)c1`: the IC50 in [1] stood at 380 nM. Further, the GI50 in series [2] is 3890 nM; in series [3] it was 1770 nM; in series [4], 4430 nM; in series [5] it was 2820 nM; in series [6], 1970 nM; in series [10] it was 1750 nM.
For `COc1ccccc1CN1CC=C(CCC(=O)NO)C1=O`, the IC50 in series [1] is above 10000 nM. Besides, the GI50 in series [2] is 3560 nM; in series [3] it was 6030 nM; in [4], above 10000 nM; in series [5], above 10000 nM; in [6], 6130 nM; in [10], above 10000 nM.
Turning to `O=C1CC2(CCCC2)CC(=O)N1CCCCN1CCN(c2ncccn2)CC1` [BUSPIRONE], the remaining at 0.5 h, 1 µM in [7] turned out to be 106%; in [8], 0.1%; in series [9] it was 108%.
